Experimental data published in patent publication US20130303509A1, “NAMPT INHIBITORS” (AbbVie Inc., priority 2012, published 2013).

Test system: PC3 cells
Assay: NAMPT Cell Proliferation Assay
Type: cell-based
Conditions: Homo sapiens, PC-3, 120 h, 5 days incubation, cell viability by Cell Titer Glo
In short: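 Seeded at 500 cells/well in RPMI with 10% heat-inactivated FBS and left to attach overnight at 37° C, 5% CO2. Compounds were added as 10-fold dilutions […] for 5 days, then viability was read by CellTiter-Glo. IC50s came from sigmoidal fits of percent inhibition.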

Structure (SMILES)	IC50 [nM]
CCCC(C)C(=O)N1CCC(c2ccc(NC(=O)[C@H]3CCN(c4cccnn4)C3)cc2)CC1 (stereo partly drawn) [Example 670, (3S)-N-{4-[1-(2-methylpentanoyl)piperidin-4-yl]phenyl}-1-(pyridazin-3-yl)pyrrolidine-3-carboxamide]	8.53
CC(=O)N[C@@H](CC(C)C)C(=O)N1CCC(c2ccc(NC(=O)C3CN(c4cccnc4C)C3)cc2)CC1 [Example 180, N-{4-[1-(N-acetyl-L-leucyl)piperidin-4-yl]phenyl}-1-(2-methylpyridin-3-yl)azetidine-3-carboxamide]	164
CCC(=O)N1CCC(c2ccc(NC(=O)C3CN(c4cccnc4)C3)cc2)CC1 [Example 121, N-[4-(1-propanoylpiperidin-4-yl)phenyl]-1-(pyridin-3-yl)azetidine-3-carboxamide]	0.62
O=C(Nc1ccc(O[C@@H]2CCN(C(=O)CC(F)(F)F)C2)cc1)C1CN(c2ccnnc2)C1 [Example 479, 1-(pyridazin-4-yl)-N-(4-{[(3R)-1-(3,3,3-trifluoropropanoyl)pyrrolidin-3-yl]oxy}phenyl)azetidine-3-carboxamide]	68.9
CC1(C(=O)N2CCC(c3ccc(NC(=O)C4CN(c5cccnn5)C4)cc3)CC2)CC1 [Example 379, N-(4-{1-[(1-methylcyclopropyl)carbonyl]piperidin-4-yl}phenyl)-1-(pyridazin-3-yl)azetidine-3-carboxamide]	1.07
O=C(Nc1ccc(C2CCN(C(=O)CC3CCOCC3)CC2)cc1)C1CN(c2cccnc2)C1 [Example 25, 1-(pyridin-3-yl)-N-{4-[1-(tetrahydro-2H-pyran-4-ylacetyl)piperidin-4-yl]phenyl}azetidine-3-carboxamide]	1.41
Cc1cnc(C(=O)N2CCC(c3ccc(NC(=O)C4CN(c5cccnn5)C4)cc3)CC2)cn1 [Example 378, N-(4-{1-[(5-methylpyrazin-2-yl)carbonyl]piperidin-4-yl}phenyl)-1-(pyridazin-3-yl)azetidine-3-carboxamide]	7.09
CC(C)C(=O)N1CCC(c2ccc(NC(=O)[C@H]3CCN(c4cccnn4)C3)cc2)CC1 [Example 310, (3S)—N-{4-[1-(2-methylpropanoyl)piperidin-4-yl]phenyl}-1-(pyridazin-3-yl)pyrrolidine-3-carboxamide]	16.1
O=C(Nc1ccc(C2CCN(C(=O)c3cccc(OC(F)(F)F)c3)CC2)cc1)[C@H]1CCN(c2cccnn2)C1 [Example 701, (3S)-1-(pyridazin-3-yl)-N-(4-{1-[3-(trifluoromethoxy)benzoyl]piperidin-4-yl}phenyl)pyrrolidine-3-carboxamide]	75.2
CC(C)(O)C(=O)N1CCC(c2ccc(NC(=O)C3CN(c4cccnc4C#N)C3)cc2)CC1 [Example 2, 1-(2-cyanopyridin-3-yl)-N-{4-[1-(2-hydroxy-2-methylpropanoyl)piperidin-4-yl]phenyl}azetidine-3-carboxamide]	> 10000
CCC(C)(C)C(=O)N1CCC(c2ccc(NC(=O)C3CN(c4cccnc4C)C3)cc2)CC1 [Example 193, N-{4-[1-(2,2-dimethylbutanoyl)piperidin-4-yl]phenyl}-1-(2-methylpyridin-3-yl)azetidine-3-carboxamide]	71
CCCCN1CCC(c2ccc(NC(=O)C3CN(c4cccnc4)C3)cc2)CC1 [Example 91, N-[4-(1-butylpiperidin-4-yl)phenyl]-1-(pyridin-3-yl)azetidine-3-carboxamide]	59.9
Cc1ncccc1N1CC(C(=O)Nc2ccc(C3CCN(C(=O)CCC(F)(F)F)CC3)cc2)C1 [Example 172, 1-(2-methylpyridin-3-yl)-N-{4-[1-(4,4,4-trifluorobutanoyl)piperidin-4-yl]phenyl}azetidine-3-carboxamide]	329
CC(C)Cn1cc(-c2ccc(NC(=O)C3CN(c4ccnnc4)C3)cc2)cn1 [Example 148, N-{4-[1-(2-methylpropyl)-1H-pyrazol-4-yl]phenyl}-1-(pyridazin-4-yl)azetidine-3-carboxamide]	76.1
CC(C)CC(=O)N1CCC(Oc2ccc(NC(=O)C3CN(c4cccnc4)C3)cc2)CC1 [Example 45, N-(4-{[1-(3-methylbutanoyl)piperidin-4-yl]oxy}phenyl)-1-(pyridin-3-yl)azetidine-3-carboxamide]	6.77
O=C(Nc1ccc(C2CCN(C(=O)c3ccccc3)CC2)cc1)[C@@H]1CCN(c2cccnn2)C1 [Example 793, (3R)—N-[4-(1-benzoylpiperidin-4-yl)phenyl]-1-(pyridazin-3-yl)pyrrolidine-3-carboxamide]	329
O=C(Nc1ccc(C2CCN(C(=O)c3ccccc3F)CC2)cc1F)C1CN(c2cccnn2)C1 [Example 828, N-{2-fluoro-4-[1-(2-fluorobenzoyl)piperidin-4-yl]phenyl}-1-(pyridazin-3-yl)azetidine-3-carboxamide]	0.826

Structure (SMILES)	IC50 [nM]
CCOCCC(=O)N1CCC(c2ccc(NC(=O)C3CN(c4cccnn4)C3)cc2)CC1 [Example 380, N-{4-[1-(3-ethoxypropanoyl)piperidin-4-yl]phenyl}-1-(pyridazin-3-yl)azetidine-3-carboxamide]	7.57
O=C(Nc1ccc(O[C@@H]2CCN(C(=O)c3cccc(OC(F)(F)F)c3)C2)cc1)C1CN(c2ccnnc2)C1 [Example 462, 1-(pyridazin-4-yl)-N-[4-({(3R)-1-[3-(trifluoromethoxy)benzoyl]pyrrolidin-3-yl}oxy)phenyl]azetidine-3-carboxamide]	214
CC(C)(C)C(=O)N1CCC(Oc2ccc(NC(=O)C3CN(c4cccnn4)C3)cc2)CC1 [Example 241, N-(4-{[1-(2,2-dimethylpropanoyl)piperidin-4-yl]oxy}phenyl)-1-(pyridazin-3-yl)azetidine-3-carboxamide]	7.73
O=C(Nc1ccc(S(=O)(=O)C2CCN(C(=O)c3cc(F)cc(F)c3)CC2)cc1)C1CN(c2cccnn2)C1 [Example 593, N-(4-{[1-(3,5-difluorobenzoyl)piperidin-4-yl]sulfonyl}phenyl)-1-(pyridazin-3-yl)azetidine-3-carboxamide]	63.4
CC(C)(C)OC(=O)N1CCN(C(C)(C)C(=O)N2CCC(c3ccc(NC(=O)C4CN(c5cccnc5)C4)cc3)CC2)CC1 [Example 609, tert-butyl 4-(2-methyl-1-oxo-1-{4-[4-({[1-(pyridin-3-yl)azetidin-3-yl]carbonyl}amino)phenyl]piperidin-1-yl}propan-2-yl)piperazine-1-carboxylate]	2.05
CC(C)c1ccc(C(=O)N2CCC(c3ccc(NC(=O)C4CN(c5cccnn5)C4)cc3)CC2)cc1 [Example 392, N-(4-{1-[4-(propan-2-yl)benzoyl]piperidin-4-yl}phenyl)-1-(pyridazin-3-yl)azetidine-3-carboxamide]	3.54
O=C(Nc1ccc(OC2CCN(C(=O)C3CCC(F)(F)CC3)CC2)cc1)C1CN(c2cccnn2)C1 [Example 216, N-[4-({1-[(4,4-difluorocyclohexyl)carbonyl]piperidin-4-yl}oxy)phenyl]-1-(pyridazin-3-yl)azetidine-3-carboxamide]	5.99
O=C(Nc1ccc(C2(F)CCN(C(=O)OCc3ccccc3)CC2)cc1)C1CN(c2ccc(Cl)nn2)C1 [Example 853, benzyl 4-[4-({[1-(6-chloropyridazin-3-yl)azetidin-3-yl]carbonyl}amino)phenyl]-4-fluoropiperidine-1-carboxylate]	> 10000
O=C(Nc1ccc(C2CCN(C(=O)c3cccc(F)c3F)CC2)cc1)C1CN(c2cccnn2)C1 [Example 390, N-{4-[1-(2,3-difluorobenzoyl)piperidin-4-yl]phenyl}-1-(pyridazin-3-yl)azetidine-3-carboxamide]	1.5
O=C(Nc1ccc(C2CCN(C(=O)C3CCC(F)(F)CC3)CC2)cc1)C1CN(c2ccnnc2)C1 [Example 560, N-(4-{1-[(4,4-difluorocyclohexyl)carbonyl]piperidin-4-yl}phenyl)-1-(pyridazin-4-yl)azetidine-3-carboxamide]	5.85
O=C(Nc1ccc(C2CCN(C(=O)CC3CCCCC3)CC2)cc1)C1CN(c2cccnn2)C1 [Example 340, N-{4-[1-(cyclohexylacetyl)piperidin-4-yl]phenyl}-1-(pyridazin-3-yl)azetidine-3-carboxamide]	2.42
CC(=O)C(=O)N1CCC(c2ccc(NC(=O)C3CN(c4cccnn4)C3)cc2)CC1 [Example 438, N-{4-[1-(2-oxopropanoyl)piperidin-4-yl]phenyl}-1-(pyridazin-3-yl)azetidine-3-carboxamide]	1.96
CC(C)(C)Cn1cc(-c2ccc(NC(=O)[C@H]3CCN(c4cccnn4)C3)cc2)cn1 [Example 759, (3S)-N-{4-[1-(2,2-dimethylpropyl)-1H-pyrazol-4-yl]phenyl}-1-(pyridazin-3-yl)pyrrolidine-3-carboxamide]	6.2
O=C(Nc1ccc(C2CCN(C(=O)Cc3c(Cl)cccc3Cl)CC2)cc1)[C@H]1CCN(c2cccnn2)C1 [Example 640, (3S)-N-(4-{1-[(2,6-dichlorophenyl)acetyl]piperidin-4-yl}phenyl)-1-(pyridazin-3-yl)pyrrolidine-3-carboxamide]	2.92
O=C(Nc1ccc(O[C@@H]2CCN(C(=O)c3cccc(Cl)c3)C2)cc1)C1CN(c2cccnn2)C1 [Example 506, N-(4-{[(3R)-1-(3-chlorobenzoyl)pyrrolidin-3-yl]oxy}phenyl)-1-(pyridazin-3-yl)azetidine-3-carboxamide]	1.28
O=C(Nc1ccc(-c2cnn(CC3CCCCO3)c2)cc1)[C@H]1CCN(c2cccnn2)C1 (stereo partly drawn) [Example 772, (3S)-1-(pyridazin-3-yl)-N-{4-[1-(tetrahydro-2H-pyran-2-ylmethyl)-1H-pyrazol-4-yl]phenyl}pyrrolidine-3-carboxamide]	63.6
COc1ccccc1C(=O)N1CCC(S(=O)(=O)c2ccc(NC(=O)C3CN(c4cccnn4)C3)cc2)CC1 [Example 570, N-(4-{[1-(2-methoxybenzoyl)piperidin-4-yl]sulfonyl}phenyl)-1-(pyridazin-3-yl)azetidine-3-carboxamide]	631
